# Data from patent US20170318812A1, “Plant and Crop Growth Regulating/Biostimulant Formulations and Methods of Use” (Arysta Lifescience North America, LLC, priority 2014, published 2017).
# Test system: TRZAX Triticum aestivum (Soft wheat)
# Assay: Ipfencarbazone biostimulant effect, early post emergence foliar application, greenhouse pots, plant height: wheat
# Type: in vivo
# Description: The original objective of this Example was to evaluate the herbicidal effect of ipfencarbazone when applied as a post emergent treatment to a range of selected crops and weeds. Unexpectedly, crop plant growth stimulation was observed. The actual species of weeds and crops are listed in the summary data tabulated below and in FIGS. 1-13. By convention each plant species has a Bayer code (5-letter name) with the scientific name for the plant referenced in FIGS. 1-13. In each Figure, each tray contains the same configuration of weeds and/or crops. In each Figure there is one replication of each treatment (six treatments in total). The top three photographs in each Figure show the Bayer Codes and bottom three photographs are aligned with the top three facilitating viewing of the same plant species. Throughout the Examples various abbreviations as conventional shorthand notation and will be appreciated by those skilled in the art. Some exemplary abbreviations include, “CV”=Co-efficient of Variation,” “LSD”=Least Significant Difference” (G/L (gram per L) AND GA/L (gram of active ingredient per L); “SC”=suspension concentrate formulation. The diluent in all treatments was water. By convention factors that are identical in all treatments (e.g. diluent and surfactant) are not listed in each treatment.
# Methods: The indicated size pots (see Tables below) are filled with a specific soil, the soil properties being indicated below. The referenced crops and weeds are planted by hand in each pot. […] The experiments include six treatments each replicated three times on each crop/weed species. At a specific time after emergence each crop and weed species was treated with ipfencarbazone plus a non-ionic surfactant (NIS). In the present Example, the surfactant employed was ENERGIC™ (non-ionic surfactant). The application timing is indicated in each of the Tables (1 or 2 leaf stage) below. Ipfencarbazone plus surfactant was diluted in water and applied at a rate equivalent to about 250 L/ha. Ipfencarbazone was applied using a track sprayer. After treatment, the pots were randomized in a greenhouse. At each assessment (indicated by “days after treatment” or DAT) the height of each plant was measured. The letters next to each mean indicate the level of statistical significance.
# Replications: 3, Untreated treatments: 1, Design: Randomized Complete Block (RCB), Treatment units: Treated ‘Plot’ experimental unit size, Dry Form. Unit: %, Treated ‘Plot’ experimental unit size Width: 1 meter, Treated ‘Plot’ experimental unit size Length: 1.4 meters, Application volume: 250 L/ha, Mix size: 0.15 liters, […]
# [1] = TRZAX BRS327, 125 g ai/ha, 28 DA-A
# [2] = TRZAX BRS327, 250 g ai/ha, 15 DA-A
# [3] = TRZAX BRS327, 250 g ai/ha, 28 DA-A
# [4] = TRZAX BRS327, 500 g ai/ha, 15 DA-A
# [5] = TRZAX BRS327, 500 g ai/ha, 28 DA-A
# [6] = TRZAX BRS327, 1000 g ai/ha, 15 DA-A
# [7] = TRZAX BRS327, 1000 g ai/ha, 28 DA-A
# [8] = TRZAX Iguaçú, 62.5 g ai/ha, 15 DA-A
# [9] = TRZAX Iguaçú, 62.5 g ai/ha, 28 DA-A
# [10] = TRZAX Iguaçú, 125 g ai/ha, 15 DA-A
# [11] = TRZAX Iguaçú, 125 g ai/ha, 28 DA-A
# [12] = TRZAX Iguaçú, 250 g ai/ha, 15 DA-A
# [13] = TRZAX Iguaçú, 250 g ai/ha, 28 DA-A
# [14] = TRZAX Iguaçú, 500 g ai/ha, 15 DA-A
# [15] = TRZAX Iguaçú, 500 g ai/ha, 28 DA-A
# [16] = TRZAX Iguaçú, 1000 g ai/ha, 15 DA-A
# [17] = TRZAX Iguaçú, 1000 g ai/ha, 28 DA-A
# [18] = TRZAX Itaipú, 62.5 g ai/ha, 15 DA-A
# [19] = TRZAX Itaipú, 62.5 g ai/ha, 28 DA-A
# [20] = TRZAX Itaipú, 125 g ai/ha, 15 DA-A
# [21] = TRZAX Itaipú, 125 g ai/ha, 28 DA-A
# [22] = TRZAX Itaipú, 250 g ai/ha, 15 DA-A
# [23] = TRZAX Itaipú, 250 g ai/ha, 28 DA-A
# [24] = TRZAX Itaipú, 500 g ai/ha, 15 DA-A
# [25] = TRZAX Itaipú, 500 g ai/ha, 28 DA-A
# [26] = TRZAX Itaipú, 1000 g ai/ha, 15 DA-A
# [27] = TRZAX Itaipú, 1000 g ai/ha, 28 DA-A
structure (smiles),measurement,setting,value
"CC(C)N(C(=O)n1cnn(-c2ccc(Cl)cc2Cl)c1=O)c1ccc(F)cc1F [ARY-0572-001, ipfencarbazone]","HEIGHT, treatment mean","TRZAX BRS327, 125 g ai/ha, 15 DA-A",27.6 a cm
same,"HEIGHT, percent of untreated check (APoC)",[1],(156.7%)
same,"HEIGHT, treatment mean",[1],35.0 a cm
same,"HEIGHT, percent of untreated check (APoC)",[2],(171.4%)
same,"HEIGHT, treatment mean",[2],32.0 a cm
same,"HEIGHT, percent of untreated check (APoC)",[3],(204.0%)
same,"HEIGHT, treatment mean",[3],45.6 a cm
same,"HEIGHT, percent of untreated check (APoC)",[4],(130.7%)
same,"HEIGHT, treatment mean",[4],24.4 a cm
same,"HEIGHT, percent of untreated check (APoC)",[5],(141.3%)
same,"HEIGHT, treatment mean",[5],31.6 a cm
same,"HEIGHT, percent of untreated check (APoC)",[6],(92.9%)
same,"HEIGHT, treatment mean",[6],17.3 a cm
same,"HEIGHT, percent of untreated check (APoC)",[7],(126.4%)
same,"HEIGHT, treatment mean",[7],28.2 a cm
same,"HEIGHT, percent of untreated check (APoC)",[8],(158.8%)
same,"HEIGHT, treatment mean",[8],24.6 a cm
same,"HEIGHT, percent of untreated check (APoC)",[9],(129.6%)
same,"HEIGHT, treatment mean",[9],29.2 bc cm
same,"HEIGHT, percent of untreated check (APoC)",[10],(168.5%)
same,"HEIGHT, treatment mean",[10],26.1 a cm
same,"HEIGHT, percent of untreated check (APoC)",[11],(133.5%)
same,"HEIGHT, treatment mean",[11],30.1 be cm
same,"HEIGHT, percent of untreated check (APoC)",[12],(193.2%)
same,"HEIGHT, treatment mean",[12],29.9 a cm
same,"HEIGHT, percent of untreated check (APoC)",[13],(192.1%)
same,"HEIGHT, treatment mean",[13],43.3 a cm
same,"HEIGHT, percent of untreated check (APoC)",[14],(153.4%)
same,"HEIGHT, treatment mean",[14],23.8 ab cm
same,"HEIGHT, percent of untreated check (APoC)",[15],(163.1%)
same,"HEIGHT, treatment mean",[15],36.8 ab cm
same,"HEIGHT, percent of untreated check (APoC)",[16],(105.4%)
same,"HEIGHT, treatment mean",[16],16.3 bc cm
same,"HEIGHT, percent of untreated check (APoC)",[17],(82.8%)
same,"HEIGHT, treatment mean",[17],18.7 c cm
same,"HEIGHT, percent of untreated check (APoC)",[18],(169.2%)
same,"HEIGHT, treatment mean",[18],23.8 abc cm
same,"HEIGHT, percent of untreated check (APoC)",[19],(154.6%)
same,"HEIGHT, treatment mean",[19],37.1 a cm
same,"HEIGHT, percent of untreated check (APoC)",[20],(181.4%)
same,"HEIGHT, treatment mean",[20],25.5 ab cm
same,"HEIGHT, percent of untreated check (APoC)",[21],(134.7%)
same,"HEIGHT, treatment mean",[21],32.3 a cm
same,"HEIGHT, percent of untreated check (APoC)",[22],(223.7%)
same,"HEIGHT, treatment mean",[22],31.4 a cm
same,"HEIGHT, percent of untreated check (APoC)",[23],(199.1%)
same,"HEIGHT, treatment mean",[23],47.8 a cm
same,"HEIGHT, percent of untreated check (APoC)",[24],(157.7%)
same,"HEIGHT, treatment mean",[24],22.2 abc cm
same,"HEIGHT, percent of untreated check (APoC)",[25],(100.0%)
same,"HEIGHT, treatment mean",[25],24.0 a cm
same,"HEIGHT, percent of untreated check (APoC)",[26],(111.5%)
same,"HEIGHT, treatment mean",[26],15.7 bc cm
same,"HEIGHT, percent of untreated check (APoC)",[27],(76.9%)
same,"HEIGHT, treatment mean",[27],18.4 a cm
